In PubChem BioAssay (NCI):
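The compound was tested at five concentrations on cells cultured in 96-well plates, with a 48-hour exposure period. GI50: concentration for 50% inhibition of growth. TGI denotes the concentration required for complete inhibition of growth.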

What was measured:
Experiment in all cases: DTP human tumour cell line panel, 48 h
[1] = tested on: MCF7 breast
[2] = tested on: ACHN renal
[3] = tested on: A549 NSCLC
[4] = tested on: SNB-19 CNS
[5] = tested on: OVCAR-3 ovarian
[6] = tested on: SW-620 colon
[7] = tested on: RPMI-8226 leukemia
[8] = tested on: SN12C renal
[9] = tested on: LOX IMVI melanoma
[10] = tested on: COLO 205 colon
[11] = tested on: HS 578T breast
[12] = tested on: NCI-H522 lung
[13] = tested on: K-562 leukemia
[14] = tested on: SF-295 CNS
[15] = tested on: U251 CNS
[16] = tested on: HCT-15 colon
[17] = tested on: SK-MEL-5 melanoma
[18] = tested on: NCI-H226 lung
[19] = tested on: DU-145 prostate
[20] = tested on: HL-60(TB) leukemia
[21] = tested on: NCI/ADR-RES ovarian
[22] = tested on: EKVX NSCLC
[23] = tested on: MDA-MB-435
[24] = tested on: HOP-62 NSCLC
[25] = tested on: M14 melanoma
[26] = tested on: SK-OV-3 ovarian
[27] = tested on: RXF 393 renal
[28] = tested on: MOLT-4 leukemia
[29] = tested on: A498 renal
[30] = tested on: HOP-92 NSCLC
[31] = tested on: SF-268 CNS
[32] = tested on: HCC-2998 colon
[33] = tested on: OVCAR-8 ovarian
[34] = tested on: IGROV1 ovarian
[35] = tested on: BT-549 breast
[36] = tested on: NCI-H460 lung
[37] = tested on: UACC-257 melanoma
[38] = tested on: HT29 colon
[39] = tested on: NCI-H23 lung
[40] = tested on: SK-MEL-2 melanoma
[41] = tested on: CCRF-CEM leukemia
[42] = tested on: HCT-116 colon
[43] = tested on: MDA-MB-231 breast
[44] = tested on: T-47D breast
[45] = tested on: UO-31 renal
[46] = tested on: UACC-62 melanoma
[47] = tested on: SNB-75 CNS
[48] = tested on: OVCAR-4 ovarian
[49] = tested on: OVCAR-5 ovarian
[50] = tested on: CAKI-1 renal
[51] = tested on: SK-MEL-28 melanoma
[52] = tested on: KM12 colon
[53] = tested on: 786-0 renal
[54] = tested on: SF-539 CNS
[55] = tested on: TK-10 renal
[56] = tested on: PC-3 prostate
[57] = tested on: MALME-3M melanoma

## Clc1ccc(N2CCN(CCCN3CCN(c4cccc(Cl)c4)CC3)CC2)cc1
[1]
  GI50: 2.92 µM
  TGI: 12.2 µM
[2]
  GI50: 7.77 µM
  TGI: 21.5 µM
[3]
  GI50: 8.57 µM
  TGI: 28.4 µM
[4]
  GI50: 11.3 µM
  TGI: 24.7 µM
[5]
  GI50: 3.44 µM
  TGI: 15.3 µM
[6]
  GI50: 3.08 µM
  TGI: 14 µM
[7]
  GI50: 1.79 µM
  TGI: 7.84 µM
[8]
  GI50: 7.51 µM
  TGI: 21.6 µM
[9]
  GI50: 2.8 µM
  TGI: 13.8 µM
[10]
  GI50: 1.62 µM
  TGI: 3.35 µM
[11]
  GI50: 4.82 µM
  TGI: 22 µM
[12]
  GI50: 14.7 µM
  TGI: 34 µM
[13]
  GI50: 1.45 µM
  TGI: 6.08 µM
[14]
  GI50: 3.74 µM
  TGI: 19.1 µM
[15]
  GI50: 5.45 µM
  TGI: 20.1 µM
[16]
  GI50: 4.9 µM
  TGI: 22.4 µM
[17]
  GI50: 1.6 µM
  TGI: 3.46 µM
[18]
  GI50: 6.51 µM
  TGI: 23.3 µM
[19]
  GI50: 8.14 µM
  TGI: 21.4 µM
[20]
  GI50: 2.33 µM
  TGI: 6.7 µM
[21]
  GI50: 4.6 µM
  TGI: 20.7 µM
[22]
  GI50: 4.5 µM
  TGI: 35.9 µM
[23]
  GI50: 3.36 µM
  TGI: 16.7 µM
[24]
  GI50: 3.97 µM
  TGI: 18.1 µM
[25]
  GI50: 1.57 µM
  TGI: 3.21 µM
[26]
  GI50: 10.7 µM
  TGI: 23.2 µM
[27]
  GI50: 6.7 µM
  TGI: 22.4 µM
[28]
  GI50: 2.01 µM
  TGI: 17.4 µM
[29]
  GI50: 4.61 µM
  TGI: 18.8 µM
[30]
  GI50: 0.813 µM
  TGI: 11.4 µM
[31]
  GI50: 7.77 µM
  TGI: 21.4 µM
[32]
  GI50: 2.65 µM
  TGI: 11.7 µM
[33]
  GI50: 10.4 µM
  TGI: 28.1 µM
[34]
  GI50: 8.89 µM
  TGI: 24.6 µM
[35]
  GI50: 3.72 µM
  TGI: 15.6 µM
[36]
  GI50: 3.78 µM
  TGI: 15.8 µM
[37]
  GI50: 4.33 µM
  TGI: 16.3 µM
[38]
  GI50: 3.03 µM
  TGI: 13.5 µM
[39]
  GI50: 3.33 µM
  TGI: 17.8 µM
[40]
  GI50: 14.3 µM
  TGI: 31.5 µM
[41]
  GI50: 3.8 µM
  TGI: 25.3 µM
[42]
  GI50: 2.45 µM
  TGI: 12.2 µM
[43]
  GI50: 4.22 µM
  TGI: 18.6 µM
[44]
  GI50: 1.63 µM
  TGI: 14.3 µM
[45]
  GI50: 3.56 µM
  TGI: 16.2 µM
[46]
  GI50: 2.86 µM
  TGI: 11.3 µM
[47]
  GI50: 2.52 µM
  TGI: 14.8 µM
[48]
  GI50: 5.77 µM
  TGI: 20.7 µM
[49]
  GI50: 9.12 µM
  TGI: 29.6 µM
[50]
  GI50: 7.43 µM
  TGI: 25.6 µM
[51]
  GI50: 2.53 µM
  TGI: 8.27 µM
[52]
  GI50: 3.45 µM
  TGI: 15.6 µM
[53]
  GI50: 4.63 µM
  TGI: 18.5 µM
[54]
  GI50: 3.21 µM
  TGI: 12.4 µM
[55]
  GI50: 5.32 µM
  TGI: 21.3 µM
[56]
  GI50: 3.34 µM
  TGI: 16.4 µM
[57]
  GI50: 2.06 µM
  TGI: 6.15 µM
